{
  "source": "patent US10844052B2",
  "about": "“LLS compounds for treatment of cancer” (THE REGENTS OF THE UNIVERSITY OF CALIFORNIA, priority 2016, dated 2020)",
  "key": {"SKOV3": {"tested_on": "SKOV3", "experiment": "Anti-cancer activity against ovarian cancer cells SKOV3 (cell killing in solution / in vitro cell proliferation)", "assay_type": "cell-based"}, "PC3": {"tested_on": "PC3", "experiment": "In vitro cell proliferation / killing assay on PC3 prostate cancer cells", "assay_type": "cell-based", "description": "(§1) Biotinylated LLS2 was synthesized in solution and loaded it onto a streptavidin-coated plate. The biotinylated LLS2 immobilized on the plate killed approximately 21% of SKOV3 ovarian cancer cells at 100 μM loading, 16% at 50 μM and 14% at 25 μM (FIG. 4). The killing effect of the LLS2 compound was also tested in solution. […] In addition, LLS2 can kill pancreatic cancer cell line XPA3, prostate cancer cell line PC3, colon cancer cell line HT29, breast cancer cell line MCF7 and lung cancer cell line A549 (FIG. 4)."}, "XPA3": {"tested_on": "XPA3", "experiment": "Cell killing by soluble LLS2, pancreatic cancer cell line XPA3", "assay_type": "cell-based", "description": "as §1"}, "HT29": {"tested_on": "HT29", "experiment": "Cell killing by soluble LLS2, colon cancer cell line HT29", "assay_type": "cell-based", "description": "as §1"}, "MCF7": {"tested_on": "MCF7", "experiment": "Cell killing by soluble LLS2, breast cancer cell line MCF7", "assay_type": "cell-based", "description": "as §1"}, "A549": {"tested_on": "A549", "experiment": "Cell killing by soluble LLS2, lung cancer cell line A549", "assay_type": "cell-based", "description": "as §1"}, "SKOV3 cells": {"tested_on": "SKOV3 cells", "experiment": "In vitro combination of LLS2 with paclitaxel on SKOV3 cells", "assay_type": "cell-based", "excerpt": "C.I.<0.9 indicates synergism, C.I.=0.9-1.10 indicates additive interaction, and C.I.>1.1 indicates antagonism.\nThe synergistic effects of LLS2 with current chemotherapeutic drugs including docetaxel, paclitaxel, 5-Fu, oxaliplatin, carboplatin, doxorubicin and gemcitabine were examined in vitro."}, "SKOV3 xenograft tumors": {"tested_on": "SKOV3 xenograft tumors", "experiment": "SKOV3 xenograft in nude mice, LLS2 alone or with paclitaxel", "assay_type": "in vivo", "excerpt": "Briefly, 2.5×10^6 SKOV3 cells were subcutaneously injected to the right side of the dorsal flank of the female congenital athymic BALB/c nude mice. The tumors were allowed to grow to about 100 mm^3.\nThen, mice were randomly divided into control and treatment groups (n=5). Mice were given a daily I.V. administration for 5 successive days.\nSKOV3 ovarian cancer cells were subcutaneously injected on the dorsal flanks of mice."}, "galectin-1": {"molecular_target": "T1, galectin-1 (Homo sapiens, UniProt P09382)", "T1 construct": "endogenous in cells", "experiment": "Pull-down with biotinylated LLS2, LC MS/MS and anti-galectin-1 immunoblot", "assay_type": "binding", "conditions": "biotinylated LLS2, cell membrane protein preparation", "description": "LLS2 was biotinylated, incubated with a cell membrane protein preparation, and bound proteins were pulled down with immobilized streptavidin resin. The bound proteins were eluted and subjected to identification by LC MS/MS. The MS result identified galectin-1 as the putative target protein of LLS2 (FIG. 8a). The identity of galectin-1 as the target protein of LLS2 was confirmed by immunoblot analysis of proteins eluted from (i) blank streptavidin-beads, (ii) biotin-LLS2/streptavidin beads, and (iii) biotinylated unrelated small molecule/streptavidin beads, using anti-galectin-1 antibody as the western blot probe (FIG. 8b)."}, "GFP-H-Ras(12V)": {"tested_on": "GFP-H-Ras(12V)", "experiment": "H-Ras localization (real time confocal) and membrane-associated H-Ras immunoblot", "assay_type": "cell-based", "from_the_text": "(§2) (b) Once activated by EGF, H-Ras will be partially trafficked to the plasma membrane leading to the activation of Erk pathway. […] (c) Quantification of membrane associated H-Ras (active form) by immunoblot analysis after treatment with buffer (−) or LLS2 (+), showing that LLS2 was able to lower the level of membrane-associated H-Ras. (d) LLS2 also miscolocalized the EGF-stimulated K-Ras(G12V) but not N-Ras(Q61D).\n(§3) LLS2 treatment also miscolocalizes the EGF-stimulated K-Ras(G12V), whereas the localization of EGF-stimulated N-Ras(Q61D) is not changed (FIG. 9d). […] Without being bound to any particular theory, this implies that LLS2 induces cell death through suppression of the RAS-ERK pathway."}, "K-Ras(G12V)": {"tested_on": "K-Ras(G12V)", "experiment": "K-Ras(G12V) localization and Ras activity assay", "assay_type": "cell-based", "from_the_text": "as §2, §3"}, "N-Ras(Q61D)": {"tested_on": "N-Ras(Q61D)", "experiment": "N-Ras(Q61D) localization", "assay_type": "cell-based", "from_the_text": "as §2, §3"}, "[1]": {"tested_on": "phospho-MEK and phospho-ERK", "experiment": "Expression level of phospho-MEK and phospho-ERK after LLS2", "assay_type": "cell-based", "conditions": "treatment for 2 hours", "from_the_text": "as §2, §3"}, "[2]": {"tested_on": "Human umbilical vascular endothelial cells (HUVECs)", "experiment": "HUVEC tube-formation assay on Matrigel-coated plates", "assay_type": "cell-based", "description": "Human umbilical vascular endothelial cells (HUVECs) we used for tube-formation assays on Matrigel-coated plates as shown in FIG. 10. The expression level of secreted gal-1 in 6 different cancer cell lines was determined using ELISA assay."}, "[3]": {"tested_on": "prostate cancer PC3 cancer cells", "conditions": "PC3, LLS2 + paclitaxel"}, "[4]": {"tested_on": "PC3 prostate cancer cells", "experiment": "Cell viability of prostate cancer PC3 cells after 72 hours treatment", "assay_type": "cell-based", "conditions": "Homo sapiens", "description": "Effects of compounds LLS42-LLS80 on the viability of PC3 prostate cancer cells after 72 hours of treatment are shown in Table 2 below: […]"}, "[5]": {"tested_on": "22RV1 prostate cancer cells", "experiment": "Cell viability of prostate cancer 22RV1 cells after 72 hours treatment", "assay_type": "cell-based", "conditions": "Homo sapiens"}, "PC3 tumor": {"tested_on": "PC3 tumor", "experiment": "In vivo efficacy study of LLS30 on PC3 tumor"}, "[6]": {"tested_on": "sNF96.2 malignant peripheral nerve sheath tumor (MPNST) cells", "experiment": "Cytotoxicity against sNF96.2 MPNST cells", "assay_type": "cell-based", "description": "(§4) The biochemical and biological effects of LLS30 on sNF96.2 and sNF2.2 malignant peripheral nerve sheath tumor (MPNST) cells were evaluated."}, "[7]": {"tested_on": "sNF2.2 malignant peripheral nerve sheath tumor (MPNST) cells", "experiment": "Cytotoxicity and PTX combination on sNF2.2 MPNST cells", "assay_type": "cell-based", "description": "as §4"}, "ERK phosphorylation": {"tested_on": "ERK phosphorylation", "experiment": "Phosphorylation of ERK / MEK/ERK pathway in MPNST cells", "assay_type": "cell-based", "description": "(b) LLS30 exerts death on MPNST cells.\nas §4"}, "[8]": {"experiment": "Combination of LLS30 with Enzalutamide", "assay_type": "cell-based"}, "[9]": {"conditions": "Homo sapiens, SK-OV-3, ovarian cancer cells SKOV3"}},
  "data": [
    {"compound": "CC(=O)OCCN(CCOC(C)=O)c1ccc(-c2nc3cc(C(CC(N)=O)NC(=O)[C@@H](N)Cc4ccc(Cl)c(Cl)c4)ccc3n2Cc2ccc(F)c(F)c2)cc1", "note": "(stereo partly drawn) [LLS2, ((4-(5-(3-amino-1-((S)-2-amino-3-(3,4-dichlorophenyl)propanamido)-3-oxopropyl)-1-(3,4-difluorobenzyl)-1H-benzo[d]imidazol-2-yl)phenyl)azanediyl)bis(ethane-2,1-diyl) Diacetate]", "values": [
      {"measurement": "IC50", "setting": "SKOV3; [9]", "value": 15.7, "unit": "µM"},
      {"measurement": "IC50", "setting": "SKOV3; ovarian cancer cells SKOV3", "value": 18.7, "unit": "µM"},
      {"measurement": "cell killing", "setting": "PC3; prostate cancer cell line PC3", "value": "can kill"},
      {"measurement": "cell killing", "setting": "XPA3", "value": "can kill"},
      {"measurement": "cell killing", "setting": "HT29", "value": "can kill"},
      {"measurement": "cell killing", "setting": "MCF7", "value": "can kill"},
      {"measurement": "cell killing", "setting": "A549", "value": "can kill"},
      {"measurement": "anti-proliferation effect of combined treatment with paclitaxel", "setting": "SKOV3 cells; SKOV3, LLS2 + paclitaxel", "value": "much stronger anti-proliferation effects"},
      {"measurement": "apoptosis after combined LLS2/paclitaxel treatment", "setting": "SKOV3 cells; SKOV3 cells, 24 hours", "value": "Increased apoptosis"},
      {"measurement": "tolerability (body weight)", "setting": "SKOV3 xenograft tumors; LLS2/paclitaxel combination regimen, nude mice", "value": "tolerable and without significant side effects"},
      {"measurement": "tumor size and weight", "setting": "SKOV3 xenograft tumors; LLS2 alone, daily I.V. for 5 successive days, SKOV3 xenograft", "value": "smaller tumor size"},
      {"measurement": "tumor growth", "setting": "SKOV3 xenograft tumors; combination LLS2/paclitaxel compared to either alone, SKOV3 xenograft", "value": "significant suppression of tumor growth"},
      {"measurement": "target protein identified by pull-down / immunoblot", "setting": "galectin-1", "value": "target protein of LLS2 was indeed galectin-1"},
      {"measurement": "membrane-localized H-Ras", "setting": "GFP-H-Ras(12V); 25 μM, 15 mins treatment, EGF-activated", "value": "loss of membrane-localized H-Ras"},
      {"measurement": "localization of EGF-stimulated GFP-H-Ras(12V)", "setting": "GFP-H-Ras(12V); 25 μM, 30 min", "value": "mis-localizes to intracellular compartments"},
      {"measurement": "membrane-associated H-Ras", "setting": "GFP-H-Ras(12V); LLS2-treated vs non-treated MDCK cells", "value": "significant down-expression of H-Ras"},
      {"measurement": "localization of EGF-stimulated K-Ras(G12V)", "setting": "K-Ras(G12V)", "value": "miscolocalizes"},
      {"measurement": "EGF-stimulated levels of K-Ras-GTP", "setting": "K-Ras(G12V); Ras activity assays", "value": "decreases"},
      {"measurement": "localization of EGF-stimulated N-Ras(Q61D)", "setting": "N-Ras(Q61D)", "value": "not changed"},
      {"measurement": "expression level of phospho-MEK and phospho-ERK", "setting": "[1]", "value": "down-regulated"},
      {"measurement": "angiogenic effect of added gal-1", "setting": "[2]", "value": "inhibited"},
      {"measurement": "tube-formation activity of PC3 conditioned medium", "setting": "[2]; 10 μM", "value": "neutralized"},
      {"measurement": "anti-proliferation effect of combined treatment with paclitaxel", "setting": "[3]", "value": "much stronger anti-proliferation effects"}
    ]},
    {"compound": "NC(=O)CC(NCc1ccc(Cl)c(Cl)c1)c1ccc2c(c1)nc(-c1ccc(N(CCO)CCO)cc1)n2Cc1ccc(Cl)c(Cl)c1", "note": "(stereo not drawn) [LLS30, 3-(2-(4-(bis(2-hydroxyethyl)amino)phenyl)-1-(3,4-dichlorobenzyl)-1H-benzo[d]imidazol-5-yl)-3-((3,4-dichlorobenzyl)amino)propanamide]", "values": [
      {"measurement": "IC50", "setting": "SKOV3; [9]", "value": 10.2, "unit": "µM"},
      {"measurement": "potency relative to LLS2", "setting": "SKOV3; in vitro cell proliferation assays", "value": "about 2 fold"},
      {"measurement": "IC50", "setting": "PC3; Homo sapiens, PC-3", "value": 9.2, "unit": "µM"},
      {"measurement": "viability at 2.5 µM", "setting": "[4]; PC-3, 2.5 μM", "value": 100, "unit": "%"},
      {"measurement": "viability at 5 µM", "setting": "[4]; PC-3, 5 μM", "value": 95, "unit": "%"},
      {"measurement": "viability at 10 µM", "setting": "[4]; PC-3, 10 μM", "value": 73, "unit": "%"},
      {"measurement": "viability at 20 µM", "setting": "[4]; PC-3, 20 μM", "value": 10, "unit": "%"},
      {"measurement": "viability at 2.5 µM", "setting": "[5]; 2.5 μM", "value": 47, "unit": "%"},
      {"measurement": "viability at 5 µM", "setting": "[5]; 5 μM", "value": 3, "unit": "%"},
      {"measurement": "viability at 10 µM", "setting": "[5]; 10 μM", "value": 0, "unit": "%"},
      {"measurement": "growth of PC3 tumor", "setting": "PC3 tumor; 10 mg/kg, i.v. q3d×4", "value": "significantly suppressed"},
      {"measurement": "Ki-67 in tumor", "setting": "PC3 tumor; LLS30-treated tumor", "value": "down-regulated"},
      {"measurement": "cleaved caspase-3 in tumor", "setting": "PC3 tumor; LLS30-treated tumor", "value": "more cleaved caspase-3 positive cells"},
      {"measurement": "PC3 tumor response, combination with PTX", "setting": "PC3 tumor; LLS30 with PTX, i.v. q3d×4", "value": "tumor regression"},
      {"measurement": "CBC, platelets, liver function tests and renal panel", "setting": "PC3 tumor; after 4 courses of treatment", "value": "remained within normal limits"},
      {"measurement": "histological analysis of the resected tumor", "setting": "PC3 tumor; necrotic cells", "value": "many necrotic cells were present"},
      {"measurement": "IC50", "setting": "[6]", "value": 16, "unit": "µM"},
      {"measurement": "IC50", "setting": "[7]", "value": 26, "unit": "µM"},
      {"measurement": "C.I. (combination index) with PTX", "setting": "[7]; LLS30 with PTX", "value": 0.1},
      {"measurement": "MEK/ERK pathway", "setting": "ERK phosphorylation; 2 μM, MPNST cells (FIG. 12 legend)", "value": "suppresses"},
      {"measurement": "Phosphorylation of ERK", "setting": "ERK phosphorylation; 24 hrs treatment, 25 μM, MPNST cells", "value": "totally suppressed"},
      {"measurement": "anti-cancer effect in combination with Enzalutamide", "setting": "[8]", "value": "synergistic anti-cancer effect"}
    ]}
  ]
}
